ChEMBL document CHEMBL1201862, “PubChem BioAssay data set” (2004)
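Cultured in 96-well plates, cells were exposed to test compound for 48 hours across five concentrations. GI50 marks 50% less growth.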 Active and inactive are the calls of the source. Rule as the data show it: active = GI50 up to about 1.1 µM and inactive = higher.

Tests used:
Assay in all cases: NCI-60 cell line screen, 48 h
NCI-H522 = test system: NCI-H522
HCT-15 = test system: HCT-15
MOLT-4 = test system: MOLT-4
U-251 = test system: U-251
NCI-H460 = test system: NCI-H460
SK-MEL-5 = test system: SK-MEL-5
Hs-578T = test system: Hs-578T
LOX IMVI = test system: LOX IMVI
HT-29 = test system: HT-29
A549 = test system: A549
SF-539 = test system: SF-539
UACC-257 = test system: UACC-257
SR = test system: SR
M14 = test system: M14
OVCAR-4 = test system: OVCAR-4
MDA-N = test system: MDA-N
SNB-19 = test system: SNB-19
RPMI-8226 = test system: RPMI-8226
EKVX = test system: EKVX
DU-145 = test system: DU-145

Compound: O=C(CSc1nc2nncc-2c(O)[nH]1)c1ccc(Cl)cc1
- GI50 (NCI-H522): > 100 µM (inactive)
- GI50 (HCT-15): 93.8 µM
- GI50 (MOLT-4): > 100 µM (inactive)
- GI50 (U-251): > 100 µM (inactive)
- GI50 (NCI-H460): > 100 µM (inactive)
- GI50 (SK-MEL-5): > 100 µM (inactive)
- GI50 (Hs-578T): > 100 µM (inactive)
- GI50 (LOX IMVI): > 100 µM (inactive)
- GI50 (HT-29): > 100 µM (inactive)
- GI50 (A549): > 100 µM (inactive)
- GI50 (SF-539): > 100 µM (inactive)
- GI50 (UACC-257): > 100 µM (inactive)
- GI50 (SR): > 100 µM (inactive)
- GI50 (M14): > 100 µM (inactive)
- GI50 (OVCAR-4): > 100 µM (inactive)
- GI50 (MDA-N): > 100 µM (inactive)
- GI50 (SNB-19): > 100 µM (inactive)
- GI50 (RPMI-8226): > 100 µM (inactive)
- GI50 (EKVX): 66.5 µM (inactive)

Compound: COP(=O)(/C=C/C(NC(=O)C(Cl)(Cl)Cl)c1ccccc1)OC (configuration not stated)
- GI50 (NCI-H522): > 100 µM (inactive)
- GI50 (HCT-15): > 100 µM
- GI50 (MOLT-4): > 100 µM (inactive)
- GI50 (U-251): > 100 µM (inactive)
- GI50 (NCI-H460): > 100 µM (inactive)
- GI50 (SK-MEL-5): > 100 µM (inactive)
- GI50 (Hs-578T): > 100 µM (inactive)
- GI50 (LOX IMVI): > 100 µM (inactive)
- GI50 (HT-29): > 100 µM (inactive)
- GI50 (A549): > 100 µM (inactive)
- GI50 (UACC-257): > 100 µM (inactive)
- GI50 (DU-145): > 100 µM (inactive)
- GI50 (M14): > 100 µM (inactive)
- GI50 (OVCAR-4): > 100 µM (inactive)
- GI50 (MDA-N): > 100 µM (inactive)
- GI50 (SNB-19): > 100 µM (inactive)
- GI50 (RPMI-8226): > 100 µM (inactive)
- GI50 (EKVX): > 100 µM (inactive)

Compound: Nc1nccc2c1ncn2C1C=C(CO)C(O)C1O (configuration not stated)
- GI50 (NCI-H522): > 100 µM (inactive)
- GI50 (HCT-15): 13.2 µM
- GI50 (MOLT-4): 2.55 µM (inactive)
- GI50 (U-251): 51.8 µM (inactive)
- GI50 (NCI-H460): 1.41 µM (inactive)
- GI50 (SK-MEL-5): 356 µM (inactive)
- GI50 (LOX IMVI): 27.5 µM (inactive)
- GI50 (HT-29): 6.37 µM (inactive)
- GI50 (A549): 98.4 µM (inactive)
- GI50 (SF-539): 11.8 µM (inactive)
- GI50 (UACC-257): 18.4 µM (inactive)
- GI50 (DU-145): > 100 µM (inactive)
- GI50 (SR): 3.29 µM (inactive)
- GI50 (M14): 70 µM (inactive)
- GI50 (OVCAR-4): 59.4 µM (inactive)
- GI50 (MDA-N): 2.99 µM (inactive)
- GI50 (SNB-19): 62.7 µM (inactive)
- GI50 (RPMI-8226): 6.31 µM (inactive)
- GI50 (EKVX): > 94.6 µM (inactive)

Compound: CC1(C)O[C@H]2[C@@H]3N=C(c4ccccc4)O[C@@H]3C=C[C@H]2O1
- GI50 (NCI-H522): 4.01 µM (inactive)
- GI50 (HCT-15): > 100 µM
- GI50 (MOLT-4): > 100 µM (inactive)
- GI50 (U-251): > 100 µM (inactive)
- GI50 (SK-MEL-5): > 100 µM (inactive)
- GI50 (LOX IMVI): > 100 µM (inactive)
- GI50 (HT-29): > 100 µM (inactive)
- GI50 (A549): > 100 µM (inactive)
- GI50 (SF-539): > 100 µM (inactive)
- GI50 (UACC-257): > 100 µM (inactive)
- GI50 (DU-145): > 100 µM (inactive)
- GI50 (SR): > 100 µM (inactive)
- GI50 (M14): > 100 µM (inactive)
- GI50 (OVCAR-4): > 100 µM (inactive)
- GI50 (MDA-N): > 100 µM (inactive)
- GI50 (SNB-19): > 100 µM (inactive)
- GI50 (RPMI-8226): > 100 µM (inactive)
- GI50 (EKVX): 59.7 µM (inactive)

Compound: NC12CC3C4CC5(N)CC3C(C1)C(C5)C4C2
- GI50 (NCI-H522): > 100 µM (inactive)
- GI50 (HCT-15): > 100 µM
- GI50 (MOLT-4): > 100 µM (inactive)
- GI50 (U-251): > 100 µM (inactive)
- GI50 (NCI-H460): > 100 µM (inactive)
- GI50 (SK-MEL-5): > 100 µM (inactive)
- GI50 (Hs-578T): > 100 µM (inactive)
- GI50 (LOX IMVI): > 100 µM (inactive)
- GI50 (HT-29): > 100 µM (inactive)
- GI50 (A549): > 100 µM (inactive)
- GI50 (UACC-257): > 100 µM (inactive)
- GI50 (M14): > 100 µM (inactive)
- GI50 (OVCAR-4): > 100 µM (inactive)
- GI50 (MDA-N): > 100 µM (inactive)
- GI50 (SNB-19): > 100 µM (inactive)
- GI50 (EKVX): > 100 µM (inactive)

Compound: O=C(NCc1ccccc1)c1nn[nH]c1O
- GI50 (NCI-H522): > 100 µM (inactive)
- GI50 (HCT-15): > 100 µM
- GI50 (MOLT-4): > 100 µM (inactive)
- GI50 (U-251): > 100 µM (inactive)
- GI50 (NCI-H460): > 100 µM (inactive)
- GI50 (SK-MEL-5): > 100 µM (inactive)
- GI50 (Hs-578T): > 100 µM (inactive)
- GI50 (HT-29): > 100 µM (inactive)
- GI50 (A549): > 100 µM (inactive)
- GI50 (UACC-257): > 100 µM (inactive)
- GI50 (DU-145): > 100 µM (inactive)
- GI50 (M14): > 100 µM (inactive)
- GI50 (OVCAR-4): > 100 µM (inactive)
- GI50 (MDA-N): > 100 µM (inactive)
- GI50 (SNB-19): > 100 µM (inactive)
- GI50 (RPMI-8226): > 100 µM (inactive)
- GI50 (EKVX): > 100 µM (inactive)
